For experiment [1], the system named is Phospho-Rb (Ser807/811) in MCF7 cells. In words: Phospho-Rb expression inhibition in MCF7 cells quantified by in cell Western. In kind it is cell-based, human. To be noted: Homo sapiens, MCF7, 24 h, 24 hours, in cell Western, read-out: MCF7 pRb IC50. Put shortly:
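MCF7 cells were seeded at 20,000/well, grown overnight, then treated 24 h at 37 °C with compound dilutions (0.1% DMSO from 1000× stocks). Fixed cells were co-stained for phospho-Rb Ser807/811 and total Rb. Near-infrared dual-channel in-cell Western imaging was the read-out.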

The subject of experiment [2] is Phospho-Rb (Ser807/811) in SW1573-CDK6 KO cells. In words: Phospho-Rb expression inhibition in SW1573-CDK6 KO cells quantified by in cell Western. In kind it is cell-based. The note with it: Homo sapiens, 24 hours, read-out: SW1573 CDK6 KO pRb IC50. The protocol: (§1) Parental SW1573 cells were obtained from the American Type Culture Collection (ATCC). CDK4 or CDK6 gene in […] cells was knocked out using the CRISPR-Cas9 technology. First, gRNA complex of CDK4 or CDK6 was prepared with Alt-R CRISPR-Cas9 tracrRNA and crRNA CDK4 (5′-[…]-3′ (SEQ ID NO: 4)) or CDK6 (5′-[…]-3′ (SEQ ID NO. 5)) (IDT-Integrated DNA Technologies), and then ribonucleoprotein (RNP) complex of CDK4 or CDK6 was prepared with respective gRNA complex and Alt-R S.p. Cas9 Nuclease V3 (IDT-Integrated DNA Technologies). Next, 5×10^4/10 μL SWJ1573 cells were electroporated with the CDK4 or CDK6 RNP complex and Alt-R Cas9 Electroporation Enhancer using Neon Transfection System (Thermo Fisher). Cells were then plated in a 96-well plate to select single clones for validation of CDK4 or CDK6 knockout by western blot analysis.
(§2) MCF7 cells were obtained from American Type Culture Collection (ATCC, HTB-22). SW1573-CDK6 KO and SW1573-CDK4 KO cells were generated by the CRISPR-Cas9 technology. All cells were plated in 96-well plates (VWR #10062-900, or Corning #3904) in 90 uL culture medium at a density of 20,000 cells/well in the respective growth medium containing 10% FBS and 1% Penicillin Streptomycin, and then incubated at 37° C. overnight. The following day, the test compound was administered to the cells by using 1000× compound stock solution prepared in DMSO at various concentrations. 1000× compound stock solution was first diluted in culturing medium to 10×, then 10 uL compound medium was added to each well in the cell plates. After administration of the compound, the cells were then incubated at 37° C. for 24 hours. Upon completion, the cells were washed with PBS briefly. 150 uL/well of 4% formaldehyde was added and the plates were incubated at room temperature for 20 mins. The cells were washed with PBS briefly, and permeabilized with 150 uL/well of ice cold 100% methanol for 10 mins. The cells were washed with PBS briefly and blocked with 100 uL/well LI-COR blocking buffer for 1 hr at room temperature with gentle shaking. The cells were incubated overnight at 4° C. with 50 uL primary antibody rabbit anti-Phospho-Rb (Ser807/811) (1: 500, Cell Signaling, #8516) and anti-Rb (1:200, Santa Cruz, sc-73598) diluted in Intercept Blocking Buffer (LI-COR, #927-60001) containing 0.1% Tween 20. The next day, the cells were washed with 200 uL PBS containing 0.1% Tween 20, 5×5 mins at room temperature with gentle shaking, and incubated with 50 uL secondary antibody, IRDye® 800CW Goat anti-Rabbit IgG (1:1000, LI-COR, #926-32211) and IRDye®680RD Goat anti-Mouse IgG (1:1000, LI-COR, #926-68070), in LI-COR blocking buffer with 0.2% Tween 20 for 1 hr at room temperature with gentle shaking. The cells were washed with 200 uL PBS containing 0.1% Tween 20, 5×5 mins at room temperature with gentle shaking. The cells were washed with PBS for 5 mins. 100 uL fresh PBS was added to each well and the plates were imaged on a LI-COR Odyssey CLX plate reader.

In experiment [3] the test system is Phospho-Rb (Ser807/811) in SW1573-CDK4 KO cells. In words: Phospho-Rb expression inhibition in SW1573-CDK4 KO cells quantified by in cell Western. In kind it is cell-based. To be noted: Homo sapiens, 24 hours, read-out: SW1573 CDK4 KO pRb IC50. The protocol:
as §1, §2

The structures appear in SMILES notation.

By IC50 is commonly meant the concentration at which inhibition is half-maximal. `CC(C)n1c(C2CCC2(F)F)nc2c(F)cc(-c3nc(N[C@@H]4C[C@H]5CO[C@H](O5)[C@H]4O)ncc3Cl)cc21` (stereo partly drawn) [Compound 239, (1S,3R,4S,5R)-3-((5-chloro-4-(2-(2,2-difluorocyclobutyl)-4-fluoro-1-isopropyl-1H-benzo[d]imidazol-6-yl)pyrimidin-2-yl)amino)-6,8-dioxabicyclo[3.2.1]octan-4-ol]: the IC50 was at most 40 nM in experiment [1], at most 40 nM in experiment [2] and 150 to 1000 nM in experiment [3].
Turning to `CC(C)n1c(C2CC(F)C2)nc2c(F)cc(-c3nc(N[C@@H]4C[C@H]5CO[C@H](O5)[C@H]4O)ncc3Cl)cc21` (stereo partly drawn) [Compound 243, (1S,3R,4S,5R)-3-((5-chloro-4-(4-fluoro-2-((1r,3R)-3-fluorocyclobutyl)-1-isopropyl-1H-benzo[d]imidazol-6-yl)pyrimidin-2-yl)amino)-6,8-dioxabicyclo[3.2.1]octan-4-ol], the IC50 is 40 to 150 nM in experiment [2] and above 1000 nM in experiment [3].
Turning to `CC(C)n1c([C@H]2C[C@H]2C(=O)N(C)C)nc2c(F)cc(-c3nc(N[C@@H]4C[C@H]5CO[C@H](O5)[C@H]4O)ncc3Cl)cc21` [Compound 248, (1R,2S)-2-(6-(5-chloro-2-(((1S,3R,4S,5R)-4-hydroxy-6,8-dioxabicyclo[3.2.1]octan-3-yl)amino)pyrimidin-4-yl)-4-fluoro-1-isopropyl-1H-benzo[d]imidazol-2-yl)-N,N-dimethylcyclopropane-1-carboxamide], the IC50 is 40 to 150 nM in experiment [1], 150 to 1000 nM in experiment [2] and above 1000 nM in experiment [3].

These data come from US20250084095A1, “Aminopyrimidine Derivatives as Cyclin-Dependent Kinase Inhibitors” (Accutar Biotechnology Inc., priority 2023, published 2025).
